Results published in ChEMBL document CHEMBL1139729, “Separation of anti-angiogenic and cytotoxic activities of borrelidin by modification at the C17 side chain” (Bioorg Med Chem Lett, 2006).
Calls of active or inactive are those of the source. No cut-off for these calls is given here.

What was measured:
HUVEC [1] = assay: Inhibition of HUVEC tubule formation assessed as number of branches at 0.75 pM; type: functional, Homo sapiens
HUVEC [2] = assay: Growth inhibition in HUVEC; type: functional, cell-based; details: Homo sapiens
SF-268 [3] = assay: Antiproliferative activity against SF268 cell line at 10 uM; type: functional; details: Homo sapiens
[4] = Maximum tolerated dose in iv dosed nude mouse; type: ADME, organism-based; details: in vivo
DU-145 [5] = assay: Antiproliferative activity against DU145 cell line at 10 uM; type: functional; details: Homo sapiens
A498 [6] = assay: Antiproliferative activity against A498 cell line at 10 uM; type: functional; details: Homo sapiens
MCF7 [7] = assay: Antiproliferative activity against MCF7 cell line at 10 uM; type: functional; details: Homo sapiens
HUVEC [8] = assay: Inhibition of HUVEC tubule formation assessed as length of branches at 0.25 pM; type: functional, Homo sapiens
[9] = (§1) Antiproliferative activity against 394NL cell line at 10 uM; type: functional; details: Homo sapiens; values are per cent of control
[10] = (§2) Antiproliferative activity against MDA467 cell line at 10 uM; type: functional; details: Homo sapiens; values are per cent of control
OVCAR-3 [11] = assay: Antiproliferative activity against OVCAR-3 cell line at 10 uM; type: functional; details: Homo sapiens
HUVEC [12] = assay: Inhibition of HUVEC tubule formation assessed as number of branches at 0.25 pM; type: functional, Homo sapiens
[13] = (§3) Antiproliferative activity against 1138L cell line at 10 uM; type: functional; details: Homo sapiens; values are per cent of control
NCI-H460 [14] = assay: Antiproliferative activity against H460 cell line at 10 uM; type: functional; details: Homo sapiens
[15] = Antiproliferative activity against NCI60 cell line; type: functional, cell-based; details: Homo sapiens
[16] = (§4) Antiproliferative activity against 251L cell line at 10 uM; type: functional; details: Homo sapiens; values are per cent of control
LNCaP [17] = assay: Antiproliferative activity against LNCAP cell line at 10 uM; type: functional; details: Homo sapiens
HUVEC [18] = assay: Inhibition of HUVEC tubule formation assessed as length of branches at 0.75 pM; type: functional, Homo sapiens
[19] = (§5) Antiproliferative activity against MDA231 cell line at 10 uM; type: functional; details: Homo sapiens, MDA-MB-231; values are per cent of control
Homo sapiens [20] = organism: Homo sapiens; assay: as §1; type: functional
Homo sapiens [21] = organism: Homo sapiens; assay: as §2; type: functional
Homo sapiens [22] = organism: Homo sapiens; assay: as §3; type: functional
Homo sapiens [23] = organism: Homo sapiens; assay: as §4; type: functional
MDA-MB-231 = assay: as §5; type: functional; details: Homo sapiens
A498 [24] = assay: Antiproliferative activity against A498 cell line at 3 uM; type: functional; details: Homo sapiens
[25] = Antiproliferative activity against MDA231 cell line at 3 uM; type: functional; details: Homo sapiens, MDA-MB-231
DU-145 [26] = assay: Antiproliferative activity against DU145 cell line at 3 uM; type: functional; details: Homo sapiens
MCF7 [27] = assay: Antiproliferative activity against MCF7 cell line at 3 uM; type: functional; details: Homo sapiens
[28] = Antiproliferative activity against MDA467 cell line at 3 uM; type: functional; details: Homo sapiens
LNCaP [29] = assay: Antiproliferative activity against LNCAP cell line at 3 uM; type: functional; details: Homo sapiens
SF-268 [30] = assay: Antiproliferative activity against SF268 cell line at 3 uM; type: functional; details: Homo sapiens
[31] = Antiproliferative activity against 1138L cell line at 3 uM; type: functional; details: Homo sapiens
[32] = Antiproliferative activity against 394NL cell line at 3 uM; type: functional; details: Homo sapiens
OVCAR-3 [33] = assay: Antiproliferative activity against OVCAR-3 cell line at 3 uM; type: functional; details: Homo sapiens
NCI-H460 [34] = assay: Antiproliferative activity against H460 cell line at 3 uM; type: functional; details: Homo sapiens
[35] = Antiproliferative activity against 251L cell line at 3 uM; type: functional; details: Homo sapiens
HUVEC [36] = assay: Inhibition of HUVEC tubule formation assessed as length of branches at 75 pM; type: functional, Homo sapiens
HUVEC [37] = assay: Inhibition of HUVEC tubule formation assessed as length of branches at 25 pM; type: functional, Homo sapiens
HUVEC [38] = assay: Inhibition of HUVEC tubule formation assessed as number of branches at 75 pM; type: functional, Homo sapiens
HUVEC [39] = assay: Inhibition of HUVEC tubule formation assessed as number of branches at 25 pM; type: functional, Homo sapiens
HUVEC [40] = assay: Inhibition of HUVEC tubule formation assessed as length of branches at 100 nM; type: functional, Homo sapiens
HUVEC [41] = assay: Inhibition of HUVEC tubule formation assessed as number of branches at 10 nM; type: functional, Homo sapiens
HUVEC [42] = assay: Inhibition of HUVEC tubule formation assessed as length of branches at 10 nM; type: functional, Homo sapiens
HUVEC [43] = assay: Inhibition of HUVEC tubule formation assessed as number of branches at 100 nM; type: functional, Homo sapiens

| SMILES | IC50 (HUVEC [2]) [µM] | inhibition at 10 µM (SF-268 [3]) [%] | inhibition at 10 µM (DU-145 [5]) [%] | inhibition at 10 µM (A498 [6]) [%] | inhibition at 10 µM (MCF7 [7]) [%] | growth, % of control at 10 µM [9] [%] | growth, % of control at 10 µM [10] [%] | inhibition at 10 µM (OVCAR-3 [11]) [%] | growth, % of control at 10 µM [13] [%] | inhibition at 10 µM (NCI-H460 [14]) [%] | IC50 [15] [µM] | growth, % of control at 10 µM [16] [%] | inhibition at 10 µM (LNCaP [17]) [%] | growth, % of control at 10 µM [19] [%] | further results |
| --- | --- | --- | --- | --- | --- | --- | --- | --- | --- | --- | --- | --- | --- | --- | --- |
| C[C@@H]1C[C@H](C)C[C@H](C)[C@@H](O)CC(=O)O[C@H]([C@@H]2CC[C@H]2C(=O)O)C/C=C/C=C(/C#N)[C@H](O)[C@@H](C)C1 | 0.5 | 4 | 16 | 9 | 9 | 3 | 6 | 16 | 3 | 7 | 0.3 | 9 | 9 | 8 | Activity (HUVEC [1]): 40; MTD [4]: > 130 mg/kg; Activity (HUVEC [8]): 65; Activity (HUVEC [12]): 38; Activity (HUVEC [18]): 63 |
| C/C1=C/C=C/C[C@@H]([C@@H]2CCC[C@H]2C(=O)O)OC(=O)C[C@H](O)[C@@H](C)C[C@@H](C)C[C@@H](C)C[C@H](C)[C@H]1O | – | – | – | – | – | – | – | – | – | – | – | – | – | – | Activity (HUVEC [2]): inactive; Activity (SF-268 [3]): inactive; Activity (DU-145 [5]): inactive; Activity (A498 [6]): inactive; Activity (MCF7 [7]): inactive; Activity (Homo sapiens [20]): inactive; Activity (Homo sapiens [21]): inactive; Activity (OVCAR-3 [11]): inactive; Activity (Homo sapiens [22]): inactive; Activity (NCI-H460 [14]): inactive; Activity (Homo sapiens [23]): inactive; Activity (LNCaP [17]): inactive; Activity (MDA-MB-231): inactive |
| C[C@@H]1C[C@H](C)C[C@H](C)[C@@H](O)CC(=O)O[C@H](C[C@@H](C)C(=O)O)C/C=C/C=C(/C#N)[C@H](O)[C@@H](C)C1 | – | 14 | 68 | 30 | 16 | 9 | 25 | 29 | 6 | 49 | – | 32 | 34 | 26 | – |
| C[C@@H]1C[C@H](C)C[C@H](C)[C@@H](O)CC(=O)O[C@H](C[C@H](C)C(=O)O)C/C=C/C=C(/C#N)[C@H](O)[C@@H](C)C1 | – | 57 | 74 | 78 | 76 | 67 | 62 | 91 | 56 | 84 | – | 81 | 92 | 90 | – |
| COc1cccc2c1C(=O)c1c(O)c3c(c(O)c1C2=O)C[C@@](O)(C(=O)CO)C[C@@H]3O[C@H]1C[C@H](N)[C@H](O)[C@H](C)O1 [DOXORUBICIN] | – | – | – | – | – | – | – | – | – | – | – | – | – | – | inhibition at 3 µM (A498 [24]): 11%; inhibition at 3 µM [25]: 11%; inhibition at 3 µM (DU-145 [26]): 5%; inhibition at 3 µM (MCF7 [27]): 12%; inhibition at 3 µM [28]: 7%; inhibition at 3 µM (LNCaP [29]): 10%; inhibition at 3 µM (SF-268 [30]): 9%; inhibition at 3 µM [31]: 6%; inhibition at 3 µM [32]: 6%; inhibition at 3 µM (OVCAR-3 [33]): 10%; inhibition at 3 µM (NCI-H460 [34]): 3%; inhibition at 3 µM [35]: 15% |
| C[C@@H]1C[C@H](C)C[C@H](C)[C@@H](O)CC(=O)O[C@H]([C@H](C)[C@H](C)C(=O)O)C/C=C/C=C(/C#N)[C@H](O)[C@@H](C)C1 | 0.001 | 3 | 7 | 9 | 9 | 4 | 7 | 6 | 3 | 3 | 0.07 | 12 | 7 | 7 | Activity (HUVEC [36]): 63; Activity (HUVEC [37]): 62; Activity (HUVEC [38]): 246; Activity (HUVEC [39]): 116 |
| C[C@@H]1C[C@H](C)C[C@H](C)[C@@H](O)CC(=O)O[C@H]([C@H](C)CC(=O)O)C/C=C/C=C(/C#N)[C@H](O)[C@@H](C)C1 | – | 13 | 55 | 21 | 12 | 9 | 15 | 32 | 5 | 38 | – | 26 | 24 | 20 | – |
| C[C@@H]1C[C@H](C)C[C@H](C)[C@@H](O)CC(=O)O[C@H]([C@@H]2CCC[C@H]2C(=O)O)C/C=C/C=C(/C#N)[C@H](O)[C@@H](C)C1 [BORRELIDIN] | 0.0005 | 3 | 5 | 8 | 13 | 2 | 6 | 11 | 2 | 4 | 0.02 | 8 | 7 | 12 | Activity (HUVEC [40]): 65; Activity (HUVEC [41]): 230; Activity (HUVEC [42]): 64; Activity (HUVEC [43]): 233 |
| CS[C@H](C[C@@H]1C/C=C/C=C(/C#N)[C@H](O)[C@@H](C)C[C@H](C)C[C@H](C)C[C@H](C)[C@@H](O)CC(=O)O1)C(=O)O | – | 54 | 75 | 68 | 48 | 64 | 59 | 102 | 42 | 79 | – | 67 | 59 | 81 | – |
